Patent US20220281848A1, “PYRAZOLE-SUBSTITUTED PYRROLIDINONES AS HERBICIDES” (FMC Corporation, priority 2019, published 2022)

How the values were obtained:
Type in all cases: in vivo
[1] = test system: ivy-leaved morning glory (Ipomoea hederacea, IPOHE); assay: Test A pre-emergence, ivy-leaved morning glory; details: after 13 d
In short: (§1)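 Values are percent plant damage 13 d after a pre-emergence spray (15.625, 62.5 or 250 g/ha; acetone/water with 0.5% Tween 20) applied to pots one day post-sowing, under glasshouse conditions of 24/16° C. and twice-daily watering.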

[2] = test system: redroot pigweed (Amaranthus retroflexus, AMARE); assay: Test A post-emergence, redroot pigweed; details: after 13 d
In short: (§2)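 Foliar application to 8-day-old seedlings at 15.625, 62.5 or 250 g/ha; phytotoxicity scored 0–100 after 13 d.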

[3] = test system: redroot pigweed (Amaranthus retroflexus, AMARE); assay: Test A pre-emergence, redroot pigweed; details: after 13 d
In short: as §1

[4] = test system: plants; assay: Test D post-emergence, other plants of Tables D2 and D4; details: for damage to plant (100=total damage to plant; 0=no damage to plant), ABUTH / damage to plant (100=total damage to plant; 0=no damage to plant), AMARE / damage to plant (100=total damage to plant; 0=no damage to plant), BIDPI / damage to plant (100=total damage to plant; 0=no damage to plant), BRAPL / damage to plant (100=total damage to plant; 0=no damage to plant), CYPES / damage to plant (100=total damage to plant; 0=no damage to plant), DIGSA / damage to plant (100=total damage to plant; 0=no damage to plant), ECHCG / damage to plant (100=total damage to plant; 0=no damage to plant), ELEIN / damage to plant (100=total damage to plant; 0=no damage to plant), EPHHL / damage to plant (100=total damage to plant; 0=no damage to plant), GLXMA / damage to plant (100=total damage to plant; 0=no damage to plant), IPOHE / damage to plant (100=total damage to plant; 0=no damage to plant), ORYSA / damage to plant (100=total damage to plant; 0=no damage to plant), PANMI / damage to plant (100=total damage to plant; 0=no damage to plant), SETFA / damage to plant (100=total damage to plant; 0=no damage to plant), SORVU: post-emergence
In short: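 Seeds treated with herbicide safener; sown in soil; glasshouse, 16 h light, 65% humidity. Sprayed day 1 (pre) or ~day 12 (post). Spray in 0.2% v/v adjuvant. Scored 0–100 damage: 20 DAA pre, 15 d post.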

[5] = test system: velvetleaf (Abutilon theophrasti, ABUTH); assay: Test A post-emergence, velvetleaf; details: after 13 d
In short: as §2

[6] = "Cereals" Postemergent, Rates 130, evaluated after 15 d
[7] = "Cereals" Postemergent, Rates 250, evaluated after 15 d
[8] = "Cereals" Postemergent, Rates 500, evaluated after 15 d

CN1CC(c2cc(C(F)(F)F)n(C)n2)C(C(=O)Nc2ccc(F)nc2F)C1=O (racemic) [Compound 22]
20: damage to plant (100=total damage; 0=no damage) AMARE ([3]; Pre-Emergence at 250 g/ha) | CHEAL damage rating (100=total damage to plant; 0=no damage to plant) [4, 7] | HORVW damage rating (100=total damage to plant; 0=no damage to plant) [4, 8] | SINAR damage rating (100=total damage to plant; 0=no damage to plant) ([4]; SINAR, "Cereals" Postemergent, Rates 500, evaluated after 15 d) | damage to plant (100=total damage to plant; 0=no damage to plant), BIDPI ([4]; rate 500, evaluated after 15 d) | damage to plant (100=total damage to plant; 0=no damage to plant), EPHHL ([4]; rate 250, evaluated after 15 d) | damage to plant (100=total damage to plant; 0=no damage to plant), PANMI ([4]; rate 250, evaluated after 15 d) | damage to plant (100=total damage to plant; 0=no damage to plant), SETFA ([4]; rate 500, evaluated after 15 d)
10: damage to plant (100=total damage; 0=no damage) AMARE ([3]; Pre-Emergence at 62.5 g/ha) | ALOMY damage rating (100=total damage to plant; 0=no damage to plant) [4, 8] | AVEFA damage rating (100=total damage to plant; 0=no damage to plant) [4, 8] | BEAVA damage rating (100=total damage to plant; 0=no damage to plant) [4, 8] | BRSNN damage rating (100=total damage to plant; 0=no damage to plant) [4, 6] | BRSNN damage rating (100=total damage to plant; 0=no damage to plant) [4, 7] | BRSNN damage rating (100=total damage to plant; 0=no damage to plant) [4, 8] | GALAP damage rating (100=total damage to plant; 0=no damage to plant) [4, 8] | HORVW damage rating (100=total damage to plant; 0=no damage to plant) [4, 7] | POLCO damage rating (100=total damage to plant; 0=no damage to plant) [4, 8] | damage to plant (100=total damage to plant; 0=no damage to plant), ABUTH ([4]; rate 250, evaluated after 15 d) | damage to plant (100=total damage to plant; 0=no damage to plant), CYPES ([4]; rate 500, evaluated after 15 d) | damage to plant (100=total damage to plant; 0=no damage to plant), ELEIN ([4]; rate 130, evaluated after 15 d) | damage to plant (100=total damage to plant; 0=no damage to plant), ELEIN ([4]; rate 250, evaluated after 15 d) | damage to plant (100=total damage to plant; 0=no damage to plant), GLXMA ([4]; rate 250, evaluated after 15 d) | damage to plant (100=total damage to plant; 0=no damage to plant), IPOHE ([4]; rate 130, evaluated after 15 d)
0: damage to plant (100=total damage; 0=no damage) IPOHE ([1]; Pre-Emergence at 15.625 g/ha) | damage to plant (100=total damage; 0=no damage) IPOHE ([1]; Pre-Emergence at 62.5 g/ha) | damage to plant (100=total damage; 0=no damage) IPOHE ([1]; Pre-Emergence at 250 g/ha) | damage to plant (100=total damage; 0=no damage) AMARE ([2]; Post-Emergence at 15.625 g/ha) | damage to plant (100=total damage; 0=no damage) AMARE ([2]; Post-Emergence at 62.5 g/ha) | damage to plant (100=total damage; 0=no damage) AMARE ([2]; Post-Emergence at 250 g/ha) | damage to plant (100=total damage; 0=no damage) AMARE ([3]; Pre-Emergence at 15.625 g/ha) | ALOMY damage rating (100=total damage to plant; 0=no damage to plant) [4, 6] | ALOMY damage rating (100=total damage to plant; 0=no damage to plant) [4, 7] | AVEFA damage rating (100=total damage to plant; 0=no damage to plant) [4, 6] | AVEFA damage rating (100=total damage to plant; 0=no damage to plant) [4, 7] | BEAVA damage rating (100=total damage to plant; 0=no damage to plant) [4, 6] | BEAVA damage rating (100=total damage to plant; 0=no damage to plant) [4, 7] | BROTE damage rating (100=total damage to plant; 0=no damage to plant) [4, 6] | BROTE damage rating (100=total damage to plant; 0=no damage to plant) [4, 7] | BROTE damage rating (100=total damage to plant; 0=no damage to plant) [4, 8] | CHEAL damage rating (100=total damage to plant; 0=no damage to plant) [4, 6] | GALAP damage rating (100=total damage to plant; 0=no damage to plant) [4, 6] | HORVW damage rating (100=total damage to plant; 0=no damage to plant) [4, 6] | KCHSC damage rating (100=total damage to plant; 0=no damage to plant) [4, 6] | KCHSC damage rating (100=total damage to plant; 0=no damage to plant) [4, 7] | KCHSC damage rating (100=total damage to plant; 0=no damage to plant) [4, 8] | LOLPE damage rating (100=total damage to plant; 0=no damage to plant) [4, 6] | LOLPE damage rating (100=total damage to plant; 0=no damage to plant) [4, 7] | LOLPE damage rating (100=total damage to plant; 0=no damage to plant) [4, 8] | POAAN damage rating (100=total damage to plant; 0=no damage to plant) [4, 6] | POAAN damage rating (100=total damage to plant; 0=no damage to plant) [4, 7] | POAAN damage rating (100=total damage to plant; 0=no damage to plant) [4, 8] | POLCO damage rating (100=total damage to plant; 0=no damage to plant) [4, 6] | POLCO damage rating (100=total damage to plant; 0=no damage to plant) [4, 7] | STEME damage rating (100=total damage to plant; 0=no damage to plant) [4, 6] | STEME damage rating (100=total damage to plant; 0=no damage to plant) [4, 7] | VERPE damage rating (100=total damage to plant; 0=no damage to plant) [4, 6] | damage to plant (100=total damage to plant; 0=no damage to plant), ABUTH ([4]; rate 130, evaluated after 15 d) | damage to plant (100=total damage to plant; 0=no damage to plant), AMARE ([4]; rate 130, evaluated after 15 d) | damage to plant (100=total damage to plant; 0=no damage to plant), AMARE ([4]; rate 250, evaluated after 15 d) | damage to plant (100=total damage to plant; 0=no damage to plant), AMARE ([4]; rate 500, evaluated after 15 d) | damage to plant (100=total damage to plant; 0=no damage to plant), BIDPI ([4]; rate 130, evaluated after 15 d) | damage to plant (100=total damage to plant; 0=no damage to plant), BIDPI ([4]; rate 250, evaluated after 15 d) | damage to plant (100=total damage to plant; 0=no damage to plant), BRAPL ([4]; rate 130, evaluated after 15 d) | damage to plant (100=total damage to plant; 0=no damage to plant), CYPES ([4]; rate 130, evaluated after 15 d) | damage to plant (100=total damage to plant; 0=no damage to plant), CYPES ([4]; rate 250, evaluated after 15 d) | damage to plant (100=total damage to plant; 0=no damage to plant), ECHCG ([4]; rate 130, evaluated after 15 d) | damage to plant (100=total damage to plant; 0=no damage to plant), EPHHL ([4]; rate 130, evaluated after 15 d) | damage to plant (100=total damage to plant; 0=no damage to plant), GLXMA ([4]; rate 130, evaluated after 15 d) | damage to plant (100=total damage to plant; 0=no damage to plant), ORYSA ([4]; rate 130, evaluated after 15 d) | damage to plant (100=total damage to plant; 0=no damage to plant), ORYSA ([4]; rate 250, evaluated after 15 d) | damage to plant (100=total damage to plant; 0=no damage to plant), ORYSA ([4]; rate 500, evaluated after 15 d) | damage to plant (100=total damage to plant; 0=no damage to plant), SETFA ([4]; rate 130, evaluated after 15 d) | damage to plant (100=total damage to plant; 0=no damage to plant), SETFA ([4]; rate 250, evaluated after 15 d) | damage to plant (100=total damage to plant; 0=no damage to plant), SORVU ([4]; rate 130, evaluated after 15 d) | damage to plant (100=total damage to plant; 0=no damage to plant), SORVU ([4]; rate 250, evaluated after 15 d) | damage to plant (100=total damage to plant; 0=no damage to plant), SORVU ([4]; rate 500, evaluated after 15 d) | damage to plant (100=total damage; 0=no damage) ABUTH ([5]; Post-Emergence at 15.625 g/ha) | damage to plant (100=total damage; 0=no damage) ABUTH ([5]; Post-Emergence at 62.5 g/ha) | damage to plant (100=total damage; 0=no damage) ABUTH ([5]; Post-Emergence at 250 g/ha)
60: VERPE damage rating (100=total damage to plant; 0=no damage to plant) [4, 8] | damage to plant (100=total damage to plant; 0=no damage to plant), DIGSA ([4]; rate 250, evaluated after 15 d) | damage to plant (100=total damage to plant; 0=no damage to plant), DIGSA ([4]; rate 500, evaluated after 15 d)
50: VERPE damage rating (100=total damage to plant; 0=no damage to plant) [4, 7] | damage to plant (100=total damage to plant; 0=no damage to plant), BRAPL ([4]; rate 250, evaluated after 15 d) | damage to plant (100=total damage to plant; 0=no damage to plant), ECHCG ([4]; rate 500, evaluated after 15 d) | damage to plant (100=total damage to plant; 0=no damage to plant), IPOHE ([4]; rate 500, evaluated after 15 d)
30: CHEAL damage rating (100=total damage to plant; 0=no damage to plant) [4, 8] | STEME damage rating (100=total damage to plant; 0=no damage to plant) [4, 8] | damage to plant (100=total damage to plant; 0=no damage to plant), ABUTH ([4]; rate 500, evaluated after 15 d) | damage to plant (100=total damage to plant; 0=no damage to plant), EPHHL ([4]; rate 500, evaluated after 15 d) | damage to plant (100=total damage to plant; 0=no damage to plant), IPOHE ([4]; rate 250, evaluated after 15 d)
70: damage to plant (100=total damage to plant; 0=no damage to plant), BRAPL ([4]; rate 500, evaluated after 15 d) | damage to plant (100=total damage to plant; 0=no damage to plant), PANMI ([4]; rate 130, evaluated after 15 d)
40: GALAP damage rating (100=total damage to plant; 0=no damage to plant) [4, 7] | damage to plant (100=total damage to plant; 0=no damage to plant), DIGSA ([4]; rate 130, evaluated after 15 d) | damage to plant (100=total damage to plant; 0=no damage to plant), ECHCG ([4]; rate 250, evaluated after 15 d) | damage to plant (100=total damage to plant; 0=no damage to plant), ELEIN ([4]; rate 500, evaluated after 15 d) | damage to plant (100=total damage to plant; 0=no damage to plant), GLXMA ([4]; rate 500, evaluated after 15 d) | damage to plant (100=total damage to plant; 0=no damage to plant), PANMI ([4]; rate 500, evaluated after 15 d)
